Source: BigSolDB 2.1

CC(C)(C)NCC(O)c1ccc(O)c(CO)c1 (stereo not given)
solubility (mole fraction)
Conditions	in acetone	in ethanol	in ethyl acetate	in isobutanol	in isopropanol	in methanol	in methyl acetate	in n-butanol	in n-propanol	in sec-butanol
283.15 K	0.000146	0.00218	0.000185	0.00154	0.00185	0.00599	0.000377	0.00109	0.00212	0.00102
288.15 K	0.000162	0.00228	0.000204	0.00172	0.00205	0.00671	0.00041	0.0012	0.00235	0.00115
293.15 K	0.000185	0.00271	0.000231	0.00192	0.00244	0.00745	0.000441	0.00134	0.00267	0.00131
298.15 K	0.000211	0.00323	0.000261	0.00217	0.00278	0.00824	0.000471	0.00151	0.00317	0.00145
303.15 K	0.000237	0.00412	0.00029	0.00243	0.00331	0.00909	0.000509	0.00168	0.0036	0.00163
308.15 K	0.000271	0.0049	0.000323	0.00272	0.00382	0.0101	0.000545	0.00187	0.00413	0.00182
313.15 K	0.000302	0.00585	0.000363	0.00304	0.00441	0.0112	0.00059	0.00211	0.00479	0.00202
318.15 K	0.000346	0.00709	0.000399	0.00343	0.00512	0.0124	0.000631	0.00233	0.00552	0.00227
323.15 K	0.000396	0.00846	0.000452	0.00385	0.00597	0.0137	0.000682	0.00262	0.00634	0.00252
328.15 K	0.000451	0.0103	0.000501	0.00432	0.00698	0.0152	0.000735	0.00292	0.00743	0.00286
